Laboratory results taken from patent US6342765B1, “Imidazole derivatives and their use as farnesyl protein transferase inhibitors” (AstraZeneca UK Limited, priority 1997, dated 2002).
pIC50: −log10 of the molar value.

Tests used:
[1] = target: T1, Farnesyl protein transferase (FPT) (Homo sapiens, UniProt P49354+P49356); assay: In-vitro farnesyl protein transferase assay (farnesylation of Ki-ras with radiolabelled farnesyl pyrophosphate); assay type: biochemical; details: read-out: IC50 in the above test
T1 construct: partially purified from human placenta; from tissue; host or cells: human placenta
Experimental: The following stock solutions were used and the assays were conducted in 96 well plates: TRIS Buffer (500 mM TRIS, 50 mM MgCl2.6H2O, pH=8.0); Farnesyl pyrophosphate (6.4 mg/ml); Aprotinin (1.9 mg/ml); Ki-ras (0.5 mg/ml, stored at −80° C.); Acid ethanol (850 ml absolute ethanol+150 ml concentrated HCl).
Farnesyl protein transferase (FPT) was partially purified from human placenta by t ammonium sulphate fractionation followed by a single Q-Sepharose™ (Pharmacia, Inc) anion exchange chromatography essentially as described by Ray and Lopez-Belmonte (Ray K P and Lopez-Belmonte J (1992) Biochemical Society Transactions 20 494-497). The substrate for FPT was Kras (CVIM C-terminal sequence). The cDNA for oncogenic val12 variant of human c-Ki-ras-2 4B was obtained from the plasmid pSW11-1 (ATCC). This was then subcloned into the polylinker of a suitable expression vector e.g. pIC147. The Kras was obtained after expression in the E. coli strain, BL21. […]
Assays were performed in 96 well plates as follows: 10 μl of test compound solution was added to each well. […] Precipitated protein was then collected onto glass fibre filter mats (B) using a Tomtec™ cell harvester and tritiated label was measured in a Wallac™1204 Betaplate scintillation counter. […]

Compound	pIC50 [1]	melting point
CSCC[C@H](NC(=O)c1ccc(COC(Cn2ccnc2)c2ccc(F)cc2)cc1-c1ccc(F)cc1)C(=O)O (stereo partly drawn) [Example 2, (2S)-2-{2-(4-fluorophenyl)-4-[2-(imidazol-1-yl)-1-(4-fluorophenyl)ethoxymethyl]benzoylamino]-4-methylsulfanylbutyric acid]	~9.00	–
CSCC[C@H](NC(=O)c1ccc(COC(Cn2ccnc2)c2nccs2)cc1-c1ccc(F)cc1)C(=O)OC(C)(C)C (stereo partly drawn) [Example 16, Tert-butyl (2S)-2-{2-(4-fluorophenyl)-4-[1-(thiazol-2-yl)-2-(imidazol-1-yl)ethoxymethyl]benzoylamino}-4-methylsulfanylbutyrate]	–	50 to 53 °C
